Test results: patent publication US20230017045A1, “PYRIDINE AND PYRIMIDINE CARBOXYLATE HERBICIDES AND METHODS OF USE THEREOF” (Dow AgroSciences LLC, priority 2017, published 2023)
Where two headings read alike, the source gives them in different places.

Tested on: test plant species
Test: Post-emergent herbicidal activity test (greenhouse, foliar spray, visual growth reduction)
Type: in vivo
Conditions: post-emergence, 336 h, 140 g ai/ha
Procedure, shortened: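 Seedlings were raised 7-21 d in a greenhouse under a 15 h photoperiod until the first or second true leaf. Each compound, dissolved in acetone:DMSO 97:3 and diluted into a surfactant-containing spray mixture, was then applied at 187 L/ha. Plants were subirrigated, and growth reduction was scored visually at 14 d.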

[1] = ALOMY: blackgrass (Alopecurus myosuroides), 14 days after application, read-out: Visual Growth Reduction (%) 14 Days After Application, ALOMY
[2] = AMARE: redroot pigweed (Amaranthus retroflexus), 14 days after application, read-out: Visual Growth Reduction (%) 14 Days After Application, AMARE
[3] = AVEFA: wild oat (Avena fatua), 14 days after application, read-out: Visual Growth Reduction (%) 14 Days After Application, AVEFA
[4] = CHEAL: lambsquarters (Chenopodium album), 14 days after application, read-out: Visual Growth Reduction (%) 14 Days After Application, CHEAL
[5] = CIRAR: canada thistle (Cirsium arvense), 14 days after application, read-out: Visual Growth Reduction (%) 14 Days After Application, CIRAR
[6] = CYPES: yellow nutsedge (Cyperus esculentus), 14 days after application, read-out: Visual Growth Reduction (%) 14 Days After Application, CYPES
[7] = DIGSA: crabgrass (Digitaria sanguinalis), 14 days after application, read-out: Visual Growth Reduction (%) 14 Days After Application, DIGSA
[8] = barnyardgrass (Echinochloa crus-galli), 14 Days After Application, read-out: Visual Growth Reduction (%) ECHCG
[9] = common chickweed (Stellaria media), 14 Days After Application, read-out: Visual Growth Reduction (%) STEME
[10] = giant foxtail (Setaria faberi), 14 Days After Application, read-out: Visual Growth Reduction (%) SETFA
[11] = ivy-leaf morning glory (Ipomoea hederacea), 14 Days After Application, read-out: Visual Growth Reduction (%) IPOHE
[12] = johnsongrass (Sorghum vulgare), 14 Days After Application, read-out: Visual Growth Reduction (%) SORVU
[13] = kochia (Bassia scoparia), 14 Days After Application, read-out: Visual Growth Reduction (%) KCHSC
[14] = rice (Oryza sativa), 14 Days After Application, read-out: Visual Growth Reduction (%) ORYSA
[15] = wheat, spring (Triticum aestivum), 14 Days After Application, read-out: Visual Growth Reduction (%) TRZAS
[16] = ECHCG: barnyardgrass (Echinochloa crus-galli), 14 days after application, read-out: Visual Growth Reduction (%) 14 Days After Application, ECHCG
[17] = IPOHE: ivy-leaf morning glory (Ipomoea hederacea), 14 days after application, read-out: Visual Growth Reduction (%) 14 Days After Application, IPOHE
[18] = KCHSC: kochia (Bassia scoparia), 14 days after application, read-out: Visual Growth Reduction (%) 14 Days After Application, KCHSC
[19] = ORYSA: rice (Oryza sativa), 14 days after application, read-out: Visual Growth Reduction (%) 14 Days After Application, ORYSA
[20] = SETFA: giant foxtail (Setaria faberi), 14 days after application, read-out: Visual Growth Reduction (%) 14 Days After Application, SETFA
[21] = SORVU: grain sorghum (Sorghum vulgare), 14 days after application, read-out: Visual Growth Reduction (%) 14 Days After Application, SORVU
[22] = STEME: common chickweed (Stellaria media), 14 days after application, read-out: Visual Growth Reduction (%) 14 Days After Application, STEME
[23] = TRZAS: wheat, spring (Triticum aestivum), 14 days after application, read-out: Visual Growth Reduction (%) 14 Days After Application, TRZAS
[24] = blackgrass (Alopecurus myosuroides), 14 Days After Application, read-out: Visual Growth Reduction (%) ALOMY
[25] = canada thistle (Cirsium arvense), 14 Days After Application, read-out: Visual Growth Reduction (%) CIRAR
[26] = crabgrass (Digitaria sanguinalis), 14 Days After Application, read-out: Visual Growth Reduction (%) DIGSA
[27] = lambsquarters (Chenopodium album), 14 Days After Application, read-out: Visual Growth Reduction (%) CHEAL
[28] = redroot pigweed (Amaranthus retroflexus), 14 Days After Application, read-out: Visual Growth Reduction (%) AMARE
[29] = wild oat (Avena fatua), 14 Days After Application, read-out: Visual Growth Reduction (%) AVEFA
[30] = yellow nutsedge (Cyperus esculentus), 14 Days After Application, read-out: Visual Growth Reduction (%) CYPES

COC(=O)c1nc(-c2ccc(C(F)(F)F)cc2Cl)c(C#N)cc1Cl [F3, Methyl 3-chloro-6-(2-chloro-4-(trifluoromethyl)phenyl)-5-cyanopicolinate]
pest or weed control at 140 g/ha [1]: 0 to 29%
pest or weed control at 140 g/ha [2]: 0 to 29%
pest or weed control at 140 g/ha [3]: 0 to 29%
pest or weed control at 140 g/ha [4]: 75 to 84%
pest or weed control at 140 g/ha [5]: 0 to 29%
pest or weed control at 140 g/ha [6]: 0 to 29%
pest or weed control at 140 g/ha [7]: 60 to 74%
pest or weed control at 140 g/ha [8]: 0 to 29%
pest or weed control at 140 g/ha [9]: 0 to 29%
pest or weed control at 140 g/ha [10]: 0 to 29%
pest or weed control at 140 g/ha [11]: 60 to 74%
pest or weed control at 140 g/ha [12]: 0 to 29%
pest or weed control at 140 g/ha [13]: 0 to 29%
pest or weed control at 140 g/ha [14]: 0 to 29%
pest or weed control at 140 g/ha [15]: 0 to 29%

COC(=O)c1nc(-c2ccc(C(F)(F)F)cc2Cl)c(F)cc1Cl [F107, methyl 3-chloro-6-(2-chloro-4-(trifluoromethyl)phenyl)-5-fluoropicolinate]
pest or weed control at 140 g/ha [1]: 30 to 44%
pest or weed control at 140 g/ha [2]: 95 to 100%
pest or weed control at 140 g/ha [3]: 45 to 59%
pest or weed control at 140 g/ha [4]: 95 to 100%
pest or weed control at 140 g/ha [5]: 95 to 100%
pest or weed control at 140 g/ha [6]: 0 to 29%
pest or weed control at 140 g/ha [7]: 95 to 100%
pest or weed control at 140 g/ha [16]: 0 to 29%
pest or weed control at 140 g/ha [17]: 95 to 100%
pest or weed control at 140 g/ha [18]: 60 to 74%
pest or weed control at 140 g/ha [19]: 0 to 29%
pest or weed control at 140 g/ha [20]: 45 to 59%
pest or weed control at 140 g/ha [21]: 95 to 100%
pest or weed control at 140 g/ha [22]: 0 to 29%
pest or weed control at 140 g/ha [23]: 45 to 59%

COC(=O)c1nc(-c2cc(Cl)cnc2OC)ccc1Cl [F129, Methyl 5,5′-dichloro-2′-methoxy-[2,3′-bipyridine-6-carboxylate]
pest or weed control at 140 g/ha [1]: 0 to 29%
pest or weed control at 140 g/ha [2]: 0 to 29%
pest or weed control at 140 g/ha [3]: 0 to 29%
pest or weed control at 140 g/ha [4]: 0 to 29%
pest or weed control at 140 g/ha [5]: 0 to 29%
pest or weed control at 140 g/ha [6]: 0 to 29%
pest or weed control at 140 g/ha [7]: 0 to 29%
pest or weed control at 140 g/ha [16]: 0 to 29%
pest or weed control at 140 g/ha [17]: 0 to 29%
pest or weed control at 140 g/ha [18]: 0 to 29%
pest or weed control at 140 g/ha [19]: 0 to 29%
pest or weed control at 140 g/ha [20]: 0 to 29%
pest or weed control at 140 g/ha [21]: 0 to 29%
pest or weed control at 140 g/ha [22]: 0 to 29%
pest or weed control at 140 g/ha [23]: 0 to 29%

COc1c(Cl)cc(Cl)c(-c2nc(C(=O)OCc3ccccc3)c(Cl)cc2F)c1F [F300, Benzyl 3-chloro-6-(4,6-dichloro-2-fluoro-3-methoxyphenyl)-5-fluoropicolinate]
pest or weed control at 140 g/ha [16]: 0 to 29%
pest or weed control at 140 g/ha [17]: 60 to 74%
pest or weed control at 140 g/ha [18]: 30 to 44%
pest or weed control at 140 g/ha [19]: 0 to 29%
pest or weed control at 140 g/ha [20]: 0 to 29%
pest or weed control at 140 g/ha [21]: 0 to 29%
pest or weed control at 140 g/ha [22]: 0 to 29%
pest or weed control at 140 g/ha [23]: 0 to 29%
pest or weed control at 140 g/ha [24]: 0 to 29%
pest or weed control at 140 g/ha [25]: 45 to 59%
pest or weed control at 140 g/ha [26]: 0 to 29%
pest or weed control at 140 g/ha [27]: 75 to 84%
pest or weed control at 140 g/ha [28]: 0 to 29%
pest or weed control at 140 g/ha [29]: 0 to 29%
pest or weed control at 140 g/ha [30]: 0 to 29%

C#Cc1cc(-c2nc(C(=O)OC)c(Cl)cc2F)c(Cl)cc1C(F)(F)F [F251, Methyl 3-chloro-6-(2-chloro-5-ethynyl-4-(trifluoromethyl)phenyl)-5-yl) picolinate]
pest or weed control at 140 g/ha [16]: 0 to 29%
pest or weed control at 140 g/ha [17]: 95 to 100%
pest or weed control at 140 g/ha [18]: 60 to 74%
pest or weed control at 140 g/ha [19]: 0 to 29%
pest or weed control at 140 g/ha [20]: 85 to 94%
pest or weed control at 140 g/ha [21]: 85 to 94%
pest or weed control at 140 g/ha [22]: 0 to 29%
pest or weed control at 140 g/ha [23]: 0 to 29%
pest or weed control at 140 g/ha [24]: 0 to 29%
pest or weed control at 140 g/ha [25]: 85 to 94%
pest or weed control at 140 g/ha [26]: 75 to 84%
pest or weed control at 140 g/ha [27]: 95 to 100%
pest or weed control at 140 g/ha [28]: 85 to 94%
pest or weed control at 140 g/ha [29]: 0 to 29%
pest or weed control at 140 g/ha [30]: 0 to 29%

COC(=O)c1nc(-c2cc3nonc3cc2F)c(F)cc1Cl [F318, Methyl 3-chloro-5-fluoro-6-(6-fluorobenzo[c][1,2,5]oxadiazol-5-yl)picolinate]
pest or weed control at 140 g/ha [16]: 85 to 94%
pest or weed control at 140 g/ha [17]: 95 to 100%
pest or weed control at 140 g/ha [18]: 0 to 29%
pest or weed control at 140 g/ha [19]: 0 to 29%
pest or weed control at 140 g/ha [20]: 75 to 84%
pest or weed control at 140 g/ha [21]: 85 to 94%
pest or weed control at 140 g/ha [22]: 0 to 29%
pest or weed control at 140 g/ha [23]: 0 to 29%
pest or weed control at 140 g/ha [24]: 0 to 29%
pest or weed control at 140 g/ha [25]: 0 to 29%
pest or weed control at 140 g/ha [26]: 85 to 94%
pest or weed control at 140 g/ha [27]: 60 to 74%
pest or weed control at 140 g/ha [28]: 60 to 74%
pest or weed control at 140 g/ha [29]: 0 to 29%
pest or weed control at 140 g/ha [30]: 0 to 29%

COC(=O)c1nc(-c2ccc(C(F)F)cc2)c(F)cc1Cl [F209, Methyl 3-chloro-6-(4-(difluoromethyl)phenyl)-5-fluoropicolinate]
pest or weed control at 140 g/ha [16]: 0 to 29%
pest or weed control at 140 g/ha [17]: 85 to 94%
pest or weed control at 140 g/ha [18]: 0 to 29%
pest or weed control at 140 g/ha [19]: 0 to 29%
pest or weed control at 140 g/ha [20]: 0 to 29%
pest or weed control at 140 g/ha [21]: 0 to 29%
pest or weed control at 140 g/ha [22]: 0 to 29%
pest or weed control at 140 g/ha [23]: 0 to 29%
pest or weed control at 140 g/ha [24]: 0 to 29%
pest or weed control at 140 g/ha [25]: 60 to 74%
pest or weed control at 140 g/ha [26]: 0 to 29%
pest or weed control at 140 g/ha [27]: 85 to 94%
pest or weed control at 140 g/ha [28]: 45 to 59%
pest or weed control at 140 g/ha [29]: 0 to 29%
pest or weed control at 140 g/ha [30]: 0 to 29%

COC(=O)c1nc(-c2ccc(C(F)(F)F)cc2Cl)c(SC)cc1Cl [F7, methyl 3-chloro-6-(2-chloro-4-(trifluoromethyl)phenyl)-5-(methylthio)picolinate]
pest or weed control at 140 g/ha [1]: 0 to 29%
pest or weed control at 140 g/ha [2]: 0 to 29%
pest or weed control at 140 g/ha [3]: 0 to 29%
pest or weed control at 140 g/ha [4]: 0 to 29%
pest or weed control at 140 g/ha [5]: 0 to 29%
pest or weed control at 140 g/ha [6]: 0 to 29%
pest or weed control at 140 g/ha [7]: 0 to 29%
pest or weed control at 140 g/ha [8]: 0 to 29%
pest or weed control at 140 g/ha [9]: 0 to 29%
pest or weed control at 140 g/ha [10]: 0 to 29%
pest or weed control at 140 g/ha [11]: 0 to 29%
pest or weed control at 140 g/ha [12]: 0 to 29%
pest or weed control at 140 g/ha [13]: 0 to 29%
pest or weed control at 140 g/ha [14]: 0 to 29%
pest or weed control at 140 g/ha [15]: 0 to 29%
